SMILES strings stand for the structures. A value given as a limit tells only on which side of the number the result lay.

The data set is described as follows: Investigation of solubility of sparingly water-soluble components in Solutions 1 to 9 (0.1 g additions until turbidity). The settings on record: 25° C.

Experimental: In addition, confirmation that turbidity or precipitation had not occurred was carried out by adding 0.1 g of the sparingly water-soluble component at a time, stirring for 10 minutes at 25° C. and then leaving to stand. […] Moreover, further tests were not carried out in cases where the solubility exceeded 5 [g/100 g solution].

With `CCCCC(CC)COCC(O)CO` (stereo not drawn) [2-ethylhexyl glyceryl ether], the solubility by setting is: (Comparative Example 1, Solution 1 (water 100 g)) 0.2 g/100 g solution; (Comparative Example 2, Solution 4 (water 90 g, ethanol 10 g)) 0.3 g/100 g solution; (Comparative Example 3, Solution 5 (water 90 g, propylene glycol 10 g)) 0.3 g/100 g solution; (Comparative Example 4, Solution 6 (water 90 g, dipropylene glycol 10 g)) 0.3 g/100 g solution; (Comparative Example 5, Solution 7 (water 90 g, butylene glycol 10 g)) 0.2 g/100 g solution; (Comparative Example 6, Solution 8 (water 90 g, glycerin 10 g)) 0.2 g/100 g solution. Besides, the solubility is, setting by setting: (Example 1, Solution 2 (water 90 g, Compound (1)-1 10 g)) 1.5 g/100 g solution; (Example 2, Solution 3 (water 90 g, Compound (1)-2 10 g)) 2.3 g/100 g solution; (Example 3, Solution 9 (water 80 g, Compound (1)-2 10 g, butylene glycol 10 g)) >5 g/100 g solution.

Values taken from US20200397675A1, “METHOD FOR IMPROVING SOLUBILITY OF SPARINGLY WATER-SOLUBLE COMPONENT” (ADEKA CORPORATION, priority 2018, published 2020).
